According to patent US9089578B2, “Method of treating neuroendocrine tumors” (Niiki Pharma Acquisition Corp. 2, priority 2010, dated 2015):

Assays:
[1] = system: Stage IV Carcinoid tumor of the small bowel; assay: Prior chemo regimens of the carcinoid patient (history); assay type: in vivo, human; details: December 2009 to March 2010
Excerpt: (§1) In a human clinical trial conducted in the US, a person with Stage IV Carcinoid tumor of the small bowel (a neuroectodermal tumor or NET) was selected to undergo treatment of sodium trans-[tetrachlorobis(1H-indazole)ruthenate(III)]. They previously had 2 surgeries: an exploratory lap (diagnosis of neuroendocrine tumor) in June 2008, and a partial surgical resection of mass in October 2008. The second surgery was followed by chemoembolization of residual tumor masses for palliative treatment in October 2008 and in November 2008. Systemic chemotherapy with capecitibine was administered between July and August 2009. In August 2009, therapy was changed to octreotide (Sandostatin LAR), but this was discontinued in November 2009.

[2] = system: Stage IV Carcinoid tumor of the small bowel; assay: Human clinical trial, carcinoid patient, tumor lesions by CT scan; assay type: in vivo; details: for Size of tumor lesion by CT scan, Left periaortic LN: baseline 2.5; for Size of tumor lesion by CT scan, Portacaval LN: baseline 3.0; for Size of tumor lesion by CT scan, Stomach/mesenteric LN: baseline 3.3; for Size of tumor lesion by CT scan, Esophageal LN: baseline 3.8
Excerpt: as §1
As the tumors were progressing, the patient started therapy on May 7, 2010 with intravenous injection of sodium trans-[tetrachlorobis(1H-indazole)ruthenate(III)] at 320 mg/m^2 based on body surface area (for a total dose of 630 mg per administration) once per week, on days 1, 8, and 15 of each 28-day cycle. At that time the patient had four metastatic sites originating from the primary tumor small intestine carcinoid. The four metastatic sites were in portacaval lymph node, left periaortic lymph node, stomach/mesenteric lymph node, and esophageal lymph node. CT scan of the tumors was done at the start of the treatment (baseline), and thereafter every two months.

[3] = system: Stage IV gastrinoma of the stomach; assay: Human clinical trial, gastrinoma patient, tumor response; assay type: in vivo; details: 420 mg/m^2 i.v. days 1, 8, 15 of 28-day cycle, 6 cycles
Excerpt: (§2) In the same human clinical trial described above, a person with Stage IV gastrinoma of the stomach, (a neuroectodermal tumor or NET) diagnosed in December 2006 was enrolled. They had multiple attempts to achieve disease control with hepatic artery embolization in […], in January 2007, and in September 2007. Localized radiotherapy with Yttrium-90 instillation to the right lobe of the liver in March 2009 and the left lobe in May 2009 was attempted. Yet the tumor was not controlled.

serum gastrin = assay: Serum gastrin level by chemiluminescence method in gastrinoma patient; assay type: in vivo, human; details: reduced from 8291
Excerpt: as §2
Serum gastrin levels were measured using chemiluminescence method during the treatment period.

[4] = system: Merkel cell carcinoma cell line MKL-1; assay: ATCC MTT Cell Proliferation Assay, MKL-1; assay type: cell-based, human; details: MKL-1 cells, 72 hours post-treatment, read-out: IC50 (concentration that inhibits cell growth by 50%)
Description: (§3) To test the activities of sodium trans-[tetrachlorobis(1H-indazole)ruthenate(III)], ATCC's MTT Cell Proliferation Assay® was performed using human thyroid carcinoma cell line MB1 and Merkel cell carcinoma cell line MKL-1, both being neuroendocrine tumor (NET) cell lines. Stock cultures were allowed to grow to 70-80% confluence for this study. The anti-proliferative activity of sodium trans-[tetrachlorobis(1H-indazole)ruthenate(III)], against the indicated cell line was evaluated in vitro using the ATCC's MTT Cell Proliferation Assay (Catalog No. 30-1010K). […] The plates were left overnight at room temperature in the dark and was read on a plate reader using SoftMax® Pro (version 5.2, Molecular Devices).
(§4) The absorbance data was analyzed as follows: Absorbance values were converted to Percent of Control and plotted against test agent concentrations for IC50 calculations using SoftMax® Pro (version 5.2, Molecular Devices). […] Percent of Control values were calculated by dividing the absorbance values for each test well by the No Drug Control average (column 11 values; cells+vehicle control) and multiplying by 100. Plots of Compound Concentration versus Percent of Control were analyzed using the 4-parameter equation to obtain IC50 values and other parameters that describe the sigmoidal dose response curve. […]

[5] = system: human thyroid carcinoma cell line MB1; assay: ATCC MTT Cell Proliferation Assay, MB1; assay type: cell-based; details: MB1 cells, 72 hours post-treatment, read-out: IC50 (concentration that inhibits cell growth by 50%)
Description: as §3, §4

[6] = End of 2nd Cycle (Jun. 24, 2010), 320 mg/m^2 i.v.
[7] = End of 4th Cycle (Aug. 19, 2010), 320 mg/m^2 i.v.
[8] = carcinoid patient, 320 mg/m^2 i.v. once per week

| SMILES | outcome of prior therapy [1] | Size of tumor lesion by CT scan, Left periaortic LN [2, 6] | Size of tumor lesion by CT scan, Portacaval LN ([2]; End of 2nd Cycle (Jun. 24, 2010), 320 mg/m^2 i.v. days 1, 8, 15 of 28-day cycle) | Size of tumor lesion by CT scan, Stomach/mesenteric LN [2, 6] | Size of tumor lesion by CT scan, Esophageal LN [2, 6] | Size of tumor lesion by CT scan, Left periaortic LN [2, 7] | Size of tumor lesion by CT scan, Portacaval LN [2, 7] | Size of tumor lesion by CT scan, Stomach/mesenteric LN [2, 7] | Size of tumor lesion by CT scan, Esophageal LN [2, 7] | disease status on treatment ([2]; after 14 cycles, as of July 2011) | effect on the remaining three lesions [2, 8] | tumor regression in one lesion [2, 8] | serious adverse events ([2]; carcinoid patient, 320 mg/m^2 i.v., 14 cycles) | best response [3] | serum gastrin level reduced during the course of therapy (serum gastrin) | IC50 [4] | IC50 [5] |
| --- | --- | --- | --- | --- | --- | --- | --- | --- | --- | --- | --- | --- | --- | --- | --- | --- | --- |
| C[C@@H](Oc1cc(-c2cnn(C3CCNCC3)c2)cnc1N)c1c(Cl)ccc(F)c1Cl [crizotinib] | disease progression |  |  |  |  |  |  |  |  |  |  |  |  |  |  |  |  |
| [Cl][Ru-]([Cl])([Cl])[Cl].[Na+].c1ccc2[nH]ncc2c1.c1ccc2[nH]ncc2c1 [sodium trans-[tetrachlorobis(1H-indazole)ruthenate(III)]] |  | 2.5 | 2.9 | 3.1 | 3.0 | 2.5 | 2.9 | 3.1 | 2.0 | remains under control | stopped tumor growth | ~50% | No serious adverse events have been observed | stable disease | 6120 | 40.4 µM | 73.7 µM |
